PubChem BioAssay (NCI)
“And” between values parts separate entries of the source, which are not always exact repeats. Equal entries are not always repeated.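 Tested at 5 concentrations; 48 h exposure; 96-well plates; endpoints linearly interpolated, else capped at highest concentration. At the GI50, growth is halved. The concentration for full growth arrest is given as TGI.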

Assays:
Assay in all cases: growth of human tumour cells (NCI), 48 h
OVCAR-5 ovarian = test system: OVCAR-5 ovarian
TK-10 renal = test system: TK-10 renal
NCI-H460 lung = test system: NCI-H460 lung
OVCAR-4 ovarian = test system: OVCAR-4 ovarian
MDA-MB-231 breast = test system: MDA-MB-231 breast
HT29 colon = test system: HT29 colon
SR leukemia = test system: SR leukemia
UACC-62 melanoma = test system: UACC-62 melanoma
M19-MEL melanoma = test system: M19-MEL melanoma
LXFL 529 NSCLC = test system: LXFL 529 NSCLC

Compound	GI50 (OVCAR-5 ovarian)	TGI (OVCAR-5 ovarian)	GI50 (TK-10 renal)	TGI (TK-10 renal)	GI50 (NCI-H460 lung)	TGI (NCI-H460 lung)	GI50 (OVCAR-4 ovarian)	TGI (OVCAR-4 ovarian)	GI50 (MDA-MB-231 breast)	TGI (MDA-MB-231 breast)	GI50 (HT29 colon)	TGI (HT29 colon)	GI50 (SR leukemia)	TGI (SR leukemia)	GI50 (UACC-62 melanoma)	TGI (UACC-62 melanoma)	TGI (M19-MEL melanoma) [µM]	TGI (LXFL 529 NSCLC) [µM]
CCN(CC)CCCC(CNc1ccnc2cc(Cl)ccc12)c1ccc(Cl)cc1 (configuration not stated)	2.53 µM and 2.16 µM	8.25 µM and 6.25 µM	1.67 µM and 0.83 µM	3.24 µM and 2.08 µM	1.9 µM and 1.74 µM	3.95 µM and 3.82 µM	1.07 µM and 1.04 µM	4.28 µM and 3.36 µM	1.41 µM and 1.54 µM	3.21 µM and 3.32 µM	0.484 µM and 0.304 µM	2.35 µM and 1.28 µM	0.337 µM and 0.307 µM	1.38 µM and 1.09 µM	1.9 µM and 1.86 µM	3.52 µM and 3.5 µM	–	–
Cn1cc(CO)c2c1C(=O)C=C(N1CC1)C2=O	0.0365 µM	4.79 µM	0.0215 µM	–	< 0.01 µM	1.27 µM	0.0256 µM	0.0917 µM	2.66 µM	5.96 µM	< 0.0189 µM	> 57.3 µM	< 0.01 µM	0.0145 µM	< 0.01 µM	0.0163 µM	–	–
Cc1cc(CC(O)c2ccc(Cl)c(Cl)c2)nc(=O)[nH]1 (configuration not stated)	–	> 100 µM	–	> 100 µM	–	> 100 µM	–	> 100 µM	–	–	–	> 100 µM	–	> 100 µM	–	> 100 µM	> 100	59.2
COc1ccc(/C=C(/C(=O)N2CCN(c3ccccc3)CC2)c2cc(OC)c(OC)c(OC)c2)cc1O	0.678 µM	> 100 µM	23.4 µM	> 100 µM	0.374 µM	> 100 µM	2.7 µM	> 100 µM	0.378 µM	50.9 µM	5 µM	38.5 µM	0.381 µM	58.4 µM	0.332 µM	> 100 µM	–	–
N#Cc1c(NN)n(C2OC(CO)C(O)C2O)c2ncnc(N)c12 (configuration not stated)	0.311 µM	14.4 µM	0.247 µM	7.93 µM	0.032 µM	0.412 µM	0.0538 µM	3.24 µM	0.284 µM	> 24.1 µM	0.0351 µM	–	0.0272 µM	0.0815 µM	0.126 µM	0.308 µM	–	–
O=S1(=O)C[C@H](O)[C@H](O)CS1	–	> 100 µM	–	> 100 µM	–	> 100 µM	–	> 100 µM	–	–	–	> 100 µM	–	> 100 µM	–	> 100 µM	> 100	> 100
NNC(=S)N/N=C(\CC1OC(=O)c2ccccc21)c1ccccc1O (configuration not stated)	–	33.9 µM	–	> 100 µM	–	> 100 µM	–	> 100 µM	–	–	–	> 100 µM	–	46.4 µM	–	> 100 µM	> 100	> 100
COc1ccc2c(c1)CCCC(Br)C2=O (configuration not stated)	–	20.8 µM	–	16.8 µM	–	10.5 µM	–	20.5 µM	–	10.9 µM	–	20.2 µM	–	24.6 µM	–	8.88 µM	–	–
CC(C)=CCNc1ncnc2c1ncn2C1OC(CO)C(O)C1O (configuration not stated)	13.3 µM	> 1000 µM	1.04 µM	85.6 µM	4.02 µM	> 345 µM	0.793 µM	> 1000 µM	1.52 µM	9.33 µM	1.34 µM	> 1000 µM	0.799 µM	> 334 µM	–	> 1000 µM	–	–
CN(C)N=Nc1ccc(NC=O)cc1	–	> 100 µM	–	> 100 µM	–	> 100 µM	–	> 100 µM	–	> 100 µM	–	> 100 µM	–	> 100 µM	–	> 100 µM	–	–
COC(=O)C1=C(O)c2cc(OC)c(OC)cc2C(c2ccc(OC)c(OC)c2)C1 (configuration not stated)	–	> 100 µM	–	> 100 µM	–	> 100 µM	–	> 100 µM	–	–	–	> 100 µM	–	> 100 µM	–	> 100 µM	> 100	> 100
COC1(OC)CC2C(=O)N(Cc3ccccc3)C1C(S(=O)(=O)c1ccccc1)C2S(=O)(=O)c1ccccc1 (configuration not stated)	–	34.1 µM	–	28.5 µM	–	82.7 µM	–	28.6 µM	–	–	–	28.4 µM	–	85.4 µM	–	26.2 µM	23.8	12.1
O=C(O)CCC(=O)c1ccc[nH]1	–	> 100 µM	–	> 100 µM	–	> 100 µM	–	> 100 µM	–	> 100 µM	–	> 100 µM	–	> 100 µM	–	> 100 µM	–	–
CCCCC(C(=O)C(=O)NC1C2CC3CC(C2)CC1C3)C(=O)C(C)C (configuration not stated)	–	> 100 µM	–	> 100 µM	–	> 100 µM	–	> 100 µM	–	–	–	> 100 µM	–	> 100 µM	–	> 100 µM	> 100	> 100
CCN(CC)CCC(CNc1ccnc2cc(Cl)ccc12)c1ccc(OC)cc1 (configuration not stated)	11.6 µM and 5.65 µM	32.2 µM and 38.6 µM	3.97 µM and 1.99 µM	14.2 µM and 5.15 µM	11.1 µM and 4.91 µM	25.6 µM and 24.7 µM	3.7 µM and 4.66 µM	20.3 µM and 28.1 µM	2.34 µM and 2.42 µM	11.2 µM and 10.9 µM	2.47 µM and 0.6 µM	13.2 µM and 11.2 µM	2.31 µM and 2.04 µM	8.35 µM and 7.34 µM	2.31 µM and 1.86 µM	5.02 µM and 4.01 µM	–	–
O=C(CNc1ccc(Cl)cc1)Nc1ccc(-c2nc3ccccc3s2)cc1	5.97 µM	13.3 µM	5.98 µM	13.7 µM	3.62 µM	12.7 µM	2.78 µM	19.4 µM	3.67 µM	14.7 µM	3.8 µM	11.4 µM	1.43 µM	> 24 µM	2.63 µM	8.3 µM	–	–
NC(=Nc1c([N+](=O)[O-])cnc2ccccc12)N1CCOCC1	–	> 100 µM	–	> 100 µM	–	> 100 µM	–	> 100 µM	–	> 100 µM	–	> 100 µM	–	> 100 µM	–	> 100 µM	–	–
Cc1nn(-c2ccccc2)c2nc(N3CCOCC3)nnc12	–	> 100 µM	–	> 100 µM	–	> 100 µM	–	> 100 µM	–	–	–	> 100 µM	–	–	–	> 100 µM	> 100	> 100
CN(C)c1nc2ccccc2[nH]1	–	> 100 µM	–	> 100 µM	–	> 100 µM	–	> 100 µM	–	–	–	> 100 µM	–	–	–	> 100 µM	> 100	> 100
CCCCCCNC(=O)c1cc(NCc2cc(O)ccc2O)ccc1O	6.63 µM	20.8 µM	10.7 µM	23.1 µM	21.5 µM	82.3 µM	5.62 µM	19.3 µM	2.78 µM	10.4 µM	21.6 µM	44.3 µM	2.88 µM	> 100 µM	3.78 µM	14.7 µM	–	–
